Measured values reported in patent US9067937B2 (priority 2012, dated 2015).
Structures can show the parent of a compound that is named as a salt. Where two headings read alike, the source gives them in different places.

Key:
MELK = MELK (Homo sapiens, UniProt Q14680); assay: Kinase assay (IMAP fluorescence polarization, FITC-labeled histone H3 peptide); format: biochemical; settings: 50 micro-M ATP
Procedure: MELK activity was determined in the presence or absence of compounds using fluorescein isothiocyanate-labeled (FITC-labeled) histone H3 peptide as a substrate. […] The serially diluted compounds, 0.8 ng/micro-L […] (Carna Biosciences) and 100 nM FITC-labeled histone H3 peptide were reacted in a reaction buffer (20 mM HEPES, 0.01% Tween-20, 0.3 mM MgCl2, 2 mM dithiothreitol, 50 micro-M ATP, pH 7.4) at room temperature for 1 hour. The reaction was stopped by the addition of three fold assay volume of progressive binding solution. […] IC50 values were calculated by nonlinear four parameter fit using SigmaPlot, version 10.0 (Systat Software, Inc.).

22Rv1 cells = assay: Cell-based assay, anti-proliferative activity (Cell Counting Kit-8, 72 hours); parameters: species or system human; settings: read-out: IC50 (μM) (22Rvl)
Procedure: (§1) Active candidate inhibitors against MELK were evaluated for their target-specific cytotoxicity using 22Rv1, T47D, A549, DU4475 and HT-1197 cells was used for negative control. 100 micro-L of cell suspension was seeded onto 96-well microtiter plate (ViewPlate-96FTC, PerkinElmer). The initial cell concentration of 22Rv1, T47D, A549, DU4475, and HT1197 were 3,000 cells/well, 2,000 cells/well and 2,500 cells/well, respectively. Cellular growth was determined using Cell Counting Kit-8 (DOJINDO) at 72 hours after the exposure of the candidate inhibitors. […] Accurate IC50 values were calculated as described previously.

A549 cells = assay: as above; parameters: species or system human; settings: read-out: IC50 (μM) (A549)
Procedure: as §1

DU4475 cells = assay: as above; parameters: species or system human; settings: read-out: IC50 (μM) (DU4475)
Procedure: as §1

T47D cells = assay: as above; parameters: species or system human; settings: read-out: IC50 (μM) (T47D)
Procedure: as §1

HT1197 cells = assay: Cell-based assay, anti-proliferative activity, MELK-negative control (Cell Counting Kit-8, 72 hours); parameters: species or system human; settings: read-out: IC50 (μM) (HTll97)
Procedure: as §1, with “100” for “Active candidate inhibitors against MELK were evaluated for their target-specific cytotoxicity using 22Rv1, T47D, A549, DU4475 and HT-1197 cells was used for negative control. 100”

Chain of MELK (Q14680 whole entry, looked up): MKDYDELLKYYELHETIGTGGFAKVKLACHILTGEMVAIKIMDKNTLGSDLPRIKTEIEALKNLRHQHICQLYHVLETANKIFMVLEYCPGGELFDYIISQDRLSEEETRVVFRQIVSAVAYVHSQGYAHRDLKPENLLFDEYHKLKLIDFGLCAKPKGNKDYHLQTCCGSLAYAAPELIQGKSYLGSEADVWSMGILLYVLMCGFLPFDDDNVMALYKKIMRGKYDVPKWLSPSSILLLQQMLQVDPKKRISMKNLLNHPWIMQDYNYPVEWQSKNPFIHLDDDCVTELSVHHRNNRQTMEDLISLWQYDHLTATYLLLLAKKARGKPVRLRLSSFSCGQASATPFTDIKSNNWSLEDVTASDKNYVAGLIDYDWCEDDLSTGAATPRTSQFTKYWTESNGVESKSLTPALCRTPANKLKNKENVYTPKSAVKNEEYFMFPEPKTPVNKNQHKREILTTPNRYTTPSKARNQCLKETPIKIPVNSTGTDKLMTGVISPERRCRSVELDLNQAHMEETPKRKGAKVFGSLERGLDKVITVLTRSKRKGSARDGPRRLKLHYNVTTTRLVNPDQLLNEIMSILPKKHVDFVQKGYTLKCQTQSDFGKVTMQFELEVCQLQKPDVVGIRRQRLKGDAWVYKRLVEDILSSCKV

| Compound | IC50 (MELK) [µM] | IC50 (22Rv1 cells; Homo sapiens, 22Rv1, 72 h) [µM] | IC50 (A549 cells; Homo sapiens, A549, 72 h) [µM] | IC50 (DU4475 cells; Homo sapiens, DU-4475, 72 h) [µM] | IC50 (T47D cells; Homo sapiens, T47D, 72 h) [µM] | IC50 (HT1197 cells; Homo sapiens, HT1197, 72 h) [µM] | IC50 (22Rv1 cells; 22Rv1 cells, 72 hours) [µM] | IC50 (A549 cells; A549 cells, 72 hours) [µM] | IC50 (DU4475 cells; DU4475 cells, 72 hours) [µM] | IC50 (T47D cells; T47D cells, 72 hours) [µM] | IC50 (HT1197 cells; HT1197 cells (MELK-negative control), 72 hours) [µM] |
| --- | --- | --- | --- | --- | --- | --- | --- | --- | --- | --- | --- |
| COc1cc(-c2ccc3ncc(C(C)=O)c(Nc4ccc(OCCN(C)C)nc4)c3n2)cc(Cl)c1O [Example 23, 1-[6-(3-Chloro-4-hydroxy-5-methoxyphenyl)-4-{6-[2-(dimethylamino)ethoxy]pyridin-3-ylamino}-1,5-naphthyridin-3-yl]ethanone dihydrochloride] | 0.0089 | 1.3 | 0.47 | 0.41 | 0.38 | 8.9 | – | – | – | – | – |
| CC(=O)c1cnc2ccc(-c3cc(Cl)c(O)c(Cl)c3)nc2c1N[C@H]1CC[C@H](N)CC1 [Example 66, 1-{4-[trans-(4-Aminocyclohexyl)amino]-6-(3,5-dichloro-4-hydroxyphenyl)-1,5-naphthyridin-3-yl}-ethanone dihydrochloride] | 0.0018 | 0.0045 | 0.016 | 0.001 | 0.0018 | 10 | – | – | – | – | – |
| CC(=O)c1cnc2ccc(-c3cc(Cl)c(O)c(Cl)c3)nc2c1Nc1ccc(N2CCC[C@@H](N)C2)nc1 [Example 95, (R)-1-{4-[6-(3-Aminopiperidin-1-yl)pyridin-3-ylamino]-6-(3,5-dichloro-4-hydroxyphenyl)-1,5-naphthyridin-3-yl}ethanone trihydrochloride] | 0.002 | 0.029 | 0.088 | 0.03 | 0.022 | 1.9 | – | – | – | – | – |
| CC(=O)c1cnc2ccc(-c3cc(F)c(O)c(Cl)c3)nc2c1N[C@H]1CC[C@H](CN(C)C)CC1 [Example 7, 1-{6-(3-Chloro-5-fluoro-4-hydroxyphenyl)-4-({trans-4-[(dimethylamino)methyl]cyclohexyl}-amino)-1,5-naphthyridin-3-yl}ethanone dihydrochloride] | 0.0013 | 0.0061 | 0.0097 | 0.0036 | 0.0035 | 0.11 | – | – | – | – | – |
| COc1cc(-c2ccc3ncc(C(C)=O)c(Nc4ccc(CCN(C)C)cc4)c3n2)cc(Cl)c1O [Example 31, 1-(6-(3-Chloro-4-hydroxy-5-methoxyphenyl)-4-(4-(2-(dimethyl-amino)ethyl)phenylamino)-1,5-naphthyridin-3-yl) ethanone dihydrochloride] | 0.0037 | 0.65 | 0.31 | 0.19 | 0.41 | 4.4 | – | – | – | – | – |
| CC(=O)c1cnc2ccc(-c3cc(F)c(O)c(Cl)c3)nc2c1N[C@H]1CC[C@H](NC(=O)C(N)C(C)C)CC1 (stereo partly drawn) [Example 69, N-(trans-4-{[3-Acetyl-6-(3-chloro-5-fluoro-4-hydroxyphenyl)-1,5-naphthyridin-4-yl]amino}-cyclohexyl)-2-amino-3-methylbutanamide dihydrochloride] | 0.0012 | 0.025 | 0.064 | 0.013 | 0.007 | 2.5 | – | – | – | – | – |
| CC(=O)c1cnc2ccc(-c3cc(Cl)c(O)c(Cl)c3)nc2c1Nc1ccc(CCN(C)C)cc1 [Example 29, 1-[6-(3,5-Dichloro-4-hydroxyphenyl)-4-{4-[2-(dimethylamino)ethyl]phenylamino}-1,5-naphthyridin-3-yl)ethanone dihydrochloride] | 0.0026 | 0.084 | 0.11 | 0.028 | 0.085 | 0.68 | – | – | – | – | – |
| CC(=O)c1cnc2ccc(-c3cc(Cl)c(O)c(Cl)c3)nc2c1N1CCC(CCN2CCCC2)CC1 [Example 36, 1-[6-(3,5-Dichloro-4-hydroxyphenyl)-4-{4-[2-(pyrrolidin-1-yl)ethyl]piperidin-1-yl}-1,5-naphthyridin-3-yl]ethanone dihydrochloride] | 0.0021 | 0.36 | 0.63 | 0.22 | 0.21 | 4.7 | – | – | – | – | – |
| CC(=O)c1cnc2ccc(-c3cc(Cl)c(O)c(Cl)c3)nc2c1N[C@H]1CC[C@H](NC(=O)C(N)C(C)C)CC1 (stereo partly drawn) [Example 79, N-{trans-4-[3-Acetyl-6-(3,5-dichloro-4-hydroxyphenyl)-1,5-naphthyridin-4-ylamino]-cyclohexyl}-2-amino-3-methylbutanamide dihydrochloride] | 0.0016 | 0.038 | 0.11 | 0.016 | 0.018 | 3.9 | – | – | – | – | – |
| CC(=O)c1cnc2ccc(-c3cc(F)c(O)c(Cl)c3)nc2c1NC[C@H]1CC[C@H](N(C)C)CC1 [Example 90, 1-[6-(3-Chloro-5-fluoro-4-hydroxyphenyl)-4-{[trans-4-(dimethylamino)-cyclohexyl]methylamino}-1,5-naphthyridin-3-yl]ethanone dihydrochloride] | 0.0024 | 0.052 | 0.12 | 0.027 | 0.03 | 10 | – | – | – | – | – |
| CC(=O)c1cnc2ccc(-c3cc(Cl)c(O)c(Cl)c3)nc2c1Nc1cccc(CCN2CCCC2)c1 [Example 19, 1-[6-(3,5-Dichloro-4-hydroxyphenyl)-4-{3-[2-(pyrrolidin-1-yl)ethyl]phenylamino}-1,5-naphthyridin-3-yl]ethanone dihydrochloride] | 0.032 | 0.63 | 0.14 | 0.11 | 0.59 | 7 | – | – | – | – | – |
| CN(C)C[C@H]1CC[C@H](Nc2c(S(C)(=O)=O)cnc3ccc(-c4cc(Cl)c(O)c(Cl)c4)nc23)CC1 [Example 12, 2,6-Dichloro-4-(8-{trans-4-[(dimethylamino)methyl]cyclohexylamino}-7-(methylsulfonyl)-1,5-naphthyridin-2-yl)phenol dihydrochloride] | 0.001 | 0.019 | 0.053 | 0.0045 | 0.019 | 0.46 | – | – | – | – | – |
| CN(C)[C@H]1CC[C@H](Nc2c(C(=O)CO)cnc3ccc(-c4cc(Cl)c(O)c(Cl)c4)nc23)CC1 [Example 203, 1[6-(3,5-dichloro-4-hydroxyphenyl)-4-{[trans-4-(dimethylamino)cyclohexyl]amino}-1,5-naphthyridin-3-yl)-2-hydroxyethanone dihydrochloride] | 0.0015 | 0.017 | 0.034 | 0.013 | 0.0093 | 1.2 | – | – | – | – | – |
| COc1ccc(-c2ccc3ncc(C(C)=O)c(N[C@H]4CC[C@H](CN(C)C)CC4)c3n2)cc1 [Example 84, 1-(4-{trans-4-[(Dimethylamino)methyl]cyclohexylamino}-6-(4-methoxyphenyl)-1,5-naphthyridin-3-yl)ethanone dihydrochloride] | 0.031 | 0.58 | 2.4 | 5.2 | 0.25 | 6 | – | – | – | – | – |
| (R)-1-(4-{[6-(3-aminopiperidin-1- yl)pyridin-3-yl]amino}-6-(3,5- dichloro-4-hydroxyphenyl)-1,5- naphthyridin-3-yl)-2-methylpropan-1- one trihydrochloride [Example 215] | 0.0065 | – | – | – | – | – | 0.032 | 0.083 | 0.014 | 0.016 | 1.7 |
| CN(C)[C@H]1CC[C@H](Nc2c(S(C)(=O)=O)cnc3ccc(-c4cc(F)c(O)c(Cl)c4)nc23)CC1 [Example 32, 2-Chloro-4-(8-(trans-4-(dimethylamino)-cyclohexylamino)-7-(methylsulfonyl)-1,5-naphthyridin-2-yl)-6-fluorophenol dihydrochloride] | 0.0016 | 0.046 | 0.2 | 0.0063 | 0.024 | 3.1 | – | – | – | – | – |
| CC(=O)c1cnc2ccc(-c3cc(Cl)c(O)c(Cl)c3)nc2c1Nc1ccc(CN2CCCC2)cc1 [Example 60, dihydrochloride] | 0.0043 | 0.1 | 0.11 | 0.041 | 0.066 | 1.1 | – | – | – | – | – |
